The values that follow come from patent EP0343961B1, “Aryl- and heteroaryl piperazinyl carboxamides having central nervous system activity” (priority 1988, dated 1989).

Like-named read-outs stand apart in the source and are kept apart here.

Experiment [1] has as its target T1, 5-HT1A serotonin receptor (Rattus norvegicus, UniProt P19327).
T1 construct: Hippocampal tissue from male Sprague Dawley rats is dissected and homogenized; from tissue; host or cells: hippocampus of male Sprague Dawley rats, membrane homogenate
T1 sequence (P19327 1-422): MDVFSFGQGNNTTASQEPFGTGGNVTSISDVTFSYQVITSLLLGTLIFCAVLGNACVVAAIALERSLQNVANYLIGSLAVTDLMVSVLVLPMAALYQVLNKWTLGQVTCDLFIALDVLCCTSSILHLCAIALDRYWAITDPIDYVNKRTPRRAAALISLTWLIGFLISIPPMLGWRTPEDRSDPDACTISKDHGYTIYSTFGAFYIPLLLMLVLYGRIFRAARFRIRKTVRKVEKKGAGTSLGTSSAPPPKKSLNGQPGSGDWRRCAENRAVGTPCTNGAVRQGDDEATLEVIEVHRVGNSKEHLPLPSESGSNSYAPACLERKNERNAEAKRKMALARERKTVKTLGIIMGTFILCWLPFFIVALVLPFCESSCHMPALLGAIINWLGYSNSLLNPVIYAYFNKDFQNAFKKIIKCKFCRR
As to the kind of experiment: inhibition of 5-HT1A serotonin receptor binding (3H-8-OH-DPAT). Further details: species or system male Sprague Dawley rats. The following applies: rat hippocampal tissue; for inhibition at 0.1 µM: at 100 nM. As to the method:
The assay is carried out as follows: Hippocampal tissue from male Sprague Dawley rats is dissected and homogenized on ice in 40 volumes of buffer A (50 mM Tris HCl, pH = 7.7) using a Polytron homogenizer at setting 5 for 3 x 15 second bursts. The homogenate is then centrifuged at 20,000 rpm (RC5-B; 50,000 g) and the supernatant discarded. The pellet is resuspended in 40 volumes of the same buffer and incubated at 37°C for 10 minutes to aid in the removal of endogenous serotonin. The homogenate is then centrifuged (as above) and the supernatant discarded. The pellet is then resuspended in 100 volumes of buffer B (50 mM Tris HCl, pH = 7.7 containing 0.1% ascorbate, 10 µM pargyline and 4 mM CaCl₂) and sonicated. An aliquot is taken for protein determination by the Lowry method and the remainder stored frozen at -70°C until used.
The homogenate (50 µL; 0.4-0.6 mg protein/sample) is incubated with 100 µL (1.5-1.8 nM) ³H-8-hydroxy-2-(di-n-propylamino)tetraline (³H-8-OH-DPAT) in a final volume of 2 mL of buffer for 10 minutes at 37°C. At the end of the incubation, 3 mL of cold buffer A are added to each tube, and the contents rapidly filtered through Whatman GF/B glass filters. The filters are then rapidly washed 2 times with 3 mL of the same buffer, placed in scintillation vials, and shaken for 15 minutes with 10 mL of Hydrofluor (National Diagnostics) scintillation cocktail. The vials are then counted in a Packard 460 CD scintillation counter.
Specific binding is defined as total binding less binding in the presence of excess unlabeled serotonin (1 µM). Binding in the presence of various concentrations of test drug is expressed as a percent of specific binding when no drug is present. […] Linear regression analysis then yields a straight line with 95% confidence limits from which an IC₅₀ can be inversely predicted.

In experiment [2] the target is T2, 5-HT₂ (Rattus norvegicus, UniProt P14842).
T2 construct: employing rat brain cortex homogenate as the receptor tissue; from tissue; host or cells: rat brain cortex, membrane homogenate
T2 sequence (P14842 whole entry): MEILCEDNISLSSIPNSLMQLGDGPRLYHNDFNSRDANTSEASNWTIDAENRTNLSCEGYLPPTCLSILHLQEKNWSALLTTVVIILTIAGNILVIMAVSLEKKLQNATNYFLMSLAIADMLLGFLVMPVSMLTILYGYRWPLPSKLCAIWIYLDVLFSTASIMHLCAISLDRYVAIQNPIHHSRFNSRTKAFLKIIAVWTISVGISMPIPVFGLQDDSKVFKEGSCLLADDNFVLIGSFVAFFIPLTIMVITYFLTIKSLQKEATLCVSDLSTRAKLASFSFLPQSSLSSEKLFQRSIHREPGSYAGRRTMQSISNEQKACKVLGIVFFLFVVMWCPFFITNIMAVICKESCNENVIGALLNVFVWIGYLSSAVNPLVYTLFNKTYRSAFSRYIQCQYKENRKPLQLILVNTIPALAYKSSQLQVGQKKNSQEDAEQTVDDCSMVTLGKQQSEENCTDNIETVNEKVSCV
Description: 5-HT2 inhibition of 3H-spiroperidol binding, brain cortex homogenate. Conditions: read-out: % Inhibition at 1 µM 5-HT₂.

The target in experiment [3] is T3, M1 muscarinic receptor (Rattus norvegicus, UniProt P08482).
T3 construct: from tissue; host or cells: rat hippocampus, membrane fraction
T3 sequence (P08482 1-460): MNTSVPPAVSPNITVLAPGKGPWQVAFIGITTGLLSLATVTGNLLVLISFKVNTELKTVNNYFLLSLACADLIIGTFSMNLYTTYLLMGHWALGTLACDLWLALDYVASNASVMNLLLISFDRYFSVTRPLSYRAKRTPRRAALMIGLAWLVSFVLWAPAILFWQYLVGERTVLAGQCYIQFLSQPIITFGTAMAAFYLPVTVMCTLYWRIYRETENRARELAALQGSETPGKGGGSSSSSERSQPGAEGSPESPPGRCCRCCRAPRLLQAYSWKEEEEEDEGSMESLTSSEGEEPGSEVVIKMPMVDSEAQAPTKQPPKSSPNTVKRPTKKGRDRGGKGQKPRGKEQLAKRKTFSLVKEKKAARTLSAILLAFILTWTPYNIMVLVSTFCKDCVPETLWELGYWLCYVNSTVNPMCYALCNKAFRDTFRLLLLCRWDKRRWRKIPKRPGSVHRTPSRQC
Description: M1 muscarinic receptor binding ([3H] pirenzipine, hippocampus tissue). Here is the method:
The M1 muscarinic receptor binding properties of the compounds of this invention were established as follows:
The resulting pellet is resuspended in the original volume of 0.32 M aqueous sucrose. The sample is then diluted 1:2 in 10 mM Na₂HPO₄/KH₂PO₄ buffer (pH = 7.4). A 100 µL sample of the buffered tissue suspension is incubated at 25°C for 60 minutes in the dark with 10 µL of test compound or vehicle for control and [³H] pirenzipine (0.5 nM, 0.04 µCi) q.s. 1 milliliter with the buffer solution. Atropine sulfate (2 µM) is added to half the samples being processed. Binding is terminated by vacuum filtration onto Whatman GF/B filters which are washed three times with the buffer solution (3 ml/wash, 4°C). […] Specific [³H] PZ binding is defined as total binding minus binding in the presence of 2 µM atropine sulfate.

For experiment [4], the target named is T4, M2 receptor (Rattus norvegicus, UniProt P10980).
T4 sequence (P10980 1-466): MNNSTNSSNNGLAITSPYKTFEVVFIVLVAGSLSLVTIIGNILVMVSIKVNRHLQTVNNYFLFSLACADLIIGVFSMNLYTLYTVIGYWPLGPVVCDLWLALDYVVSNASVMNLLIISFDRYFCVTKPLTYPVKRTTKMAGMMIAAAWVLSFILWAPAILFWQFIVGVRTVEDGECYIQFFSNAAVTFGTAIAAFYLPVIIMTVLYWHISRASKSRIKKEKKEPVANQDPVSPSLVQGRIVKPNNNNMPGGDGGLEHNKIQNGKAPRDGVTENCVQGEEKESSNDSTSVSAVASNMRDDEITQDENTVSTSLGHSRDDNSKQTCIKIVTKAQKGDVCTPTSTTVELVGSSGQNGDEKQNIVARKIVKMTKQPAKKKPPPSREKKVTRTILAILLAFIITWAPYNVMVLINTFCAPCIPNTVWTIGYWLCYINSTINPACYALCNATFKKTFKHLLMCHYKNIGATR
Description: M2 receptor binding ([3H] quinuclidinyl benzilate, cerebellum tissue). The following applies: [3H] quinuclidinyl benzilate 0.23 nM, read-out: IC₅₀for M₂.

The mark [5] stands for this setting: at 1 µM, rat brain cortex homogenate, 3H-spiroperidol.

Consider `O=C1CC2(CCCC2)CC(=O)N1CCCCN1CCN(c2ncccn2)CC1` [Buspirone, reference compound], for which at 1 µM the inhibition in experiment [1] was 94%. In the case of `COc1ccccc1N1CCN(CCCNC(=O)C23CC4CC(CC(C4)C2)C3)CC1` [Example 1, N-[3-[4-(2-Methoxyphenyl)-1-piperazinyl]propyl]tricyclo[3.3.1.1^3,7]decan-1-carboxamide], the inhibition at 1 µM in experiment [1] was determined as 98%; in experiment [2] (setting [5]), 92%. The affinity in experiment [1] corresponds to a Ki of 1 nM. The corresponding values for `O=C(NCCN1CCN(c2ncccn2)CC1)C12CC3CC(CC(C3)C1)C2` [Example 2, N-[2-[4-(2-Pyrimidyl)-1-piperazinyl]ethyl]tricyclo[3.3.1.1^3,7]decane-1-carboxamide] are 97%, 91% and 1 nM. On to `COc1ccccc1N1CCN(CCNC(=O)C23CC4CC(CC(C4)C2)C3)CC1` [Example 3, N-[2-[4-(2-Methoxyphenyl)-1-piperazinyl]ethyl]tricyclo[3.3.1.1^3,7]decane-1-carboxamide], for which testing at 1 µM in experiment [1] gave an inhibition of 97%. The same measure, in the same setting: as for `O=C(NCCN1CCN(c2cccc(Cl)c2)CC1)C12CC3CC(CC(C3)C1)C2` [Example 4, N-[2-[4-(3-Chlorophenyl)-1-piperazinyl]ethyl]tricyclo[3.3.1.1^3,7]decane-1-carboxamide], the figure is 100%; as for `O=C(NCCN1CCN(c2ncccn2)CC1)c1cc2ccccc2o1` [Example 5, N-[2-[4-(2-Pyrimidyl)-1-piperazinyl]ethyl]benzofurane-2-carboxamide], 83%; as for `COc1ccccc1N1CCN(CCCNC(=O)c2cc3ccccc3o2)CC1` [Example 6, N-[3-[4-(2-Methoxyphenyl)-1-piperazinyl]propyl]benzofurane-2 carboxamide], 94%. The same measure, in the same setting: in the case of `COc1ccccc1N1CCN(CCCNC(=O)c2cc3ccccc3[nH]2)CC1` [Example 7, N-[3-[4-(2-Methoxyphenyl)-1-piperazinyl]propyl]-(1H)-indole-2 carboxamide] it was 91%.

In experiment [1], `O=C(NCCCN1CCN(c2cccc(Cl)c2)CC1)C12CC3CC(CC(C3)C1)C2` [Example 8, N-[3-[4-(3-Chlorophenyl)-1-piperazinyl]propyl]tricyclo[3.3.1.1^3,7]decane-1-carboxamide] registered an inhibition at 1 µM of 94%. On the same count and under the same terms, as for `CC12CC3CC(C1)CC(CC(=O)NCCN1CCN(c4ncccn4)CC1)(C3)C2` [Example 9, N-[2-[4-(2-Pyrimidyl)-1-piperazinyl]ethyl]-3-methyltricyclo[3.3.1.1^3,7]decane-1-acetic Acid Carboxamide], the figure is 93%. In experiment [1], `O=C(NCCCN1CCN(c2ncccn2)CC1)C12CC3CC(CC(C3)C1)C2` [Example 10, N-[3-[4-(2-Pyrimidyl)-1-piperazinyl]propyl]tricyclo[3.3.1.1^3,7]decane-1-carboxamide] showed an inhibition at 1 µM of 82%. Same read-out and setting: as for `CC12CC3CC(C1)CC(CC(=O)NCCN1CCN(c4cccc(Cl)c4)CC1)(C3)C2` [Example 11, N-[2-[4-(3-Chlorophenyl)-1-piperazinyl]ethyl]-3-methyltricyclo[3.3.1.1^3,7]decane-1-acetic Acid Carboxamide], the figure is 91%. `COc1ccccc1N1CCN(CCNC(=O)CC23CC4CC(CC(C)(C4)C2)C3)CC1` [Example 12, N-[2-[4-(2-Methoxyphenyl)-1-piperazinyl]ethyl]-3-methyltricyclo[3.3.1.1^3,7]decane-1-acetic Acid Carboxamide]: the inhibition at 1 µM in experiment [1] is 98%. Same read-out and setting: in the case of `O=C(NCCN1CCN(c2ncccn2)CC1)C12CC3CC(CC1C3)C2` [Example 13, N-[2-[4-(2-Pyrimidyl)-1-piperazinyl]ethyl]hexahydro-2,5-methanopentalene-3a(1H)-carboxamide] it was 97%.

As to `COc1ccccc1N1CCN(CCNC(=O)C23CC4CC(CC2C4)C3)CC1` [Example 14, N-[2-[4-(2-Methoxyphenyl)-1-piperazinyl]ethyl]hexahydro-2,5-methanopentalene-3a(1H)-carboxamide], the inhibition at 0.1 µM in experiment [1] is 100%. `O=C(NCCN1CCN(c2cccc(Cl)c2)CC1)C12CC3CC(CC1C3)C2` [Example 15, N-[2-[4-(3-Chlorophenyl)-1-piperazinyl]ethyl]hexahydro-2,5-methanopentalene-3a(1H)-carboxamide]: the IC50 in experiment [3] (rat hippocampus, [3H] pirenzipine 0.5 nM, read-out: IC₅₀for M₁) came out at 0.24 µM; in experiment [4], 11 µM. For the same compound, in experiment [3] (ratio of IC50 for M2 to IC50 for M1), the “M₂/M₁ Ratio” value turned out to be 46. In experiment [1], this compound registered an inhibition at 0.1 µM of 99%. In experiment [1], `O=C(NCCCN1CCN(c2ncccn2)CC1)C12CC3CC(CC1C3)C2` [Example 17, N-[3-[4-(2-Pyrimidyl)-1-piperazinyl]propyl]hexahydro-2,5-methanopentalene-3a(1H)-carboxamide] came in with an inhibition at 1 µM of 88% and an inhibitory constant (Ki) of 67 nM.

`COc1ccccc1N1CCN(CCCNC(=O)C23CC4CC(CC2C4)C3)CC1` [Example 18, N-[3-[4-(2-Methoxyphenyl)-1-piperazinyl]propyl]hexahydro-2,5-methanopentalene-3a(1H)-carboxamide] returned an inhibition at 1 µM in experiment [1] of 99%. As for `O=C(NCCCN1CCN(c2cccc(Cl)c2)CC1)C12CC3CC(CC1C3)C2` [Example 19, N-[3-[4-(3-Chlorophenyl)-1-piperazinyl]propyl]hexahydro-2,5-methanopentalene-3a(1H)-carboxamide], in experiment [1], testing at 0.1 µM gave an inhibition of 75% and the Ki was determined as 20 nM.

As to `CC1(C)CC(=O)N(CCCCN2CCN(c3ncccn3)CC2)C(=O)C1` [Gepirone, 4,4-dimethyl-1-[4-[4-(2-pyrimidinyl)-1-piperazinyl]-butyl]-2,6-piperidinedione, reference compound], the inhibition at 1 µM in experiment [2] is 20%.

The inhibition is the share of the control response that was lost under treatment. As a reminder, the Ki is a dissociation constant, usually derived from enzyme kinetics or from competition with a known ligand. A lower Ki goes with higher affinity.
